For two molecules, survival rate results are on record in patent US20160068843A1 (priority 2012, published 2016).

Where two headings read alike, the source gives them in different places.

The test system of the test is H5N1 virus (strain A/Vietnam/1194/04). Format: in vivo, Balb/c mice.

For `NC(=O)c1ncn([C@@H]2O[C@H](CO)[C@@H](O)[C@H]2O)n1` [Ribavirin], the survival rate (mouse, in vivo) is reported as 0%. As to `CC(=O)N[C@H]1[C@H]([C@H](O)[C@H](O)CO)OC(C(=O)O)=C[C@@H]1N=C(N)N` [Zanamivir], the survival rate (comparison with existing flu therapeutics, started 24 hours post challenge, siRNA intranasal 100 ug per dose twice a day for two days) turned out to be 40%.
